What was measured:
[1] = tested on: adjuvant-induced rheumatoid arthritis in rats; assay: Adjuvant-induced RA (AIA) model in rats; assay type: in vivo, Male Lewis rats; design: % Inhibition of swelling in each time interval relative to negative control: concentration or dose not given beside the values; conditions: for Mean right hind paw volume (ml water displaced): CFA treated paw, acute phase; for Mean left hind paw volume (ml water displaced): CFA untreated paw, delayed phase
Method: The ability of compounds of formula I to treat adjuvant-induced rheumatoid arthritis in rats was examined. The AIA model is one thought mainly to involve T cell-mediated mechanisms.
Male Lewis rats weighing 200±10 g were housed in groups of 6 with free access to food and water. 0.1 ml CFA (Mycobacterium tuberculosis 3 mg/ml) was injected into the subplantar region of the right bind paw of each rat on day 1 of the study.
Test substances were first dissolved in NaOH (if required) as explained above then suspended in 2% Tween 80 to a range of concentrations. 10 ml/kg was administered by oral gavage for 21 consecutive days, beginning (on day 1) 1 hour before injection of CFA. 2% Tween 80 was used as a negative control and methotrexate in 2% Tween 80 as a positive control.
Right hind paw volumes were measured by water displacement on day 0, 4 hours after the CFA injection on day 1, and on days 7, 14, and 21. Left hind paw volumes were measured by water displacement on days 0, 1, 7, 14, and 21. […] 30% or more reduction in paw volume relative to the negative control was considered significant anti-inflammatory activity. Body weight was also recorded on days 1, 7, 14, and 21. Symptoms of swelling in the front paws, tail, nose and ears were recorded on day 21.

[2] = in vivo; cited from earlier work
rheumatoid arthritis = conditions: RA patients; cited from earlier work
[3] = tested on: collagen-induced rheumatoid arthritis in mice

CN(Cc1cnc2nc(N)nc(N)c2n1)c1ccc(C(=O)N[C@@H](CCC(=O)O)C(=O)O)cc1 [MTX, methotrexate]
Mean right hind paw volume (ml water displaced) ([1]; day 0, oral gavage): 1.06 mL
Mean right hind paw volume (ml water displaced) ([1]; day 1 (4 hours after CFA), oral gavage): 1.56 mL
Mean right hind paw volume (ml water displaced) ([1]; day 7, oral gavage): 1.79 mL
Mean right hind paw volume (ml water displaced) ([1]; day 14, oral gavage): 1.48 mL
Mean right hind paw volume (ml water displaced) ([1]; day 21, oral gavage): 1.37 mL
Mean left hind paw volume (ml water displaced) ([1]; day 0, oral gavage): 1.06 mL
Mean left hind paw volume (ml water displaced) ([1]; day 1, oral gavage): 1.06 mL
Mean left hind paw volume (ml water displaced) ([1]; day 7, oral gavage): 1.08 mL
Mean left hind paw volume (ml water displaced) ([1]; day 14, oral gavage): 1.10 mL
Mean left hind paw volume (ml water displaced) ([1]; day 21, oral gavage): 1.14 mL
% Inhibition of swelling in each time interval relative to negative control ([1]; left hind paw (CFA untreated), days 0-14): 95%
% Inhibition of swelling in each time interval relative to negative control ([1]; left hind paw (CFA untreated), days 0-21): 94%
% Inhibition of swelling in each time interval relative to negative control ([1]; right hind paw (CFA treated), days 0-1): 15%
% Inhibition of swelling in each time interval relative to negative control ([1]; right hind paw (CFA treated), days 0-7): 34%
% Inhibition of swelling in each time interval relative to negative control ([1]; right hind paw (CFA treated), days 0-14): 73%
% Inhibition of swelling in each time interval relative to negative control ([1]; right hind paw (CFA treated), days 0-21): 83%
fraction undergoing fast elimination unchanged after uptake [2]: more than 80%
patients who do not respond sufficiently well to treatment with methotrexate alone (rheumatoid arthritis): around 35%
therapeutic dose as percentage of maximum tolerated dose ([3]; mice, intraperitoneal, once daily for 6 weeks): twice as high
signs of anaemia at the end of the study (red blood cell count, FIG. 3) ([3]; mouse, in vivo): severe signs of anaemia

From US8247422B2, “Use of condensed pyrimidine derivatives for the treatment of rheumatoid arthritis” (priority 2007, dated 2012)
